Measurements as given in the NIST ThermoML archive (doi:10.1016/j.tca.2012.08.011).
± gives the expanded uncertainty stated by the source.

Assay: xn = mol fraction of the nth substance listed
Details: 101 kPa, Liquid; for mass density: Vibrating tube method; for speed of sound: Linear variable-path acoustic interferometer

## NC1CCCCC1 [cyclohexylamine] + c1ccccc1
308.15 K, x1 = 0.0621
  mass density: 861.67 ± 0.09 kg/m3
308.15 K, x1 = 0.0938
  mass density: 861.08 ± 0.09 kg/m3
308.15 K, x1 = 0.1434
  mass density: 860.23 ± 0.09 kg/m3
308.15 K, x1 = 0.1546
  mass density: 860.04 ± 0.09 kg/m3
308.15 K, x1 = 0.2031
  mass density: 859.28 ± 0.09 kg/m3
308.15 K, x1 = 0.2475
  mass density: 858.65 ± 0.09 kg/m3
308.15 K, x1 = 0.2972
  mass density: 857.99 ± 0.09 kg/m3
308.15 K, x1 = 0.3472
  mass density: 857.38 ± 0.09 kg/m3
308.15 K, x1 = 0.3945
  mass density: 856.87 ± 0.09 kg/m3
308.15 K, x1 = 0.4786
  mass density: 856.07 ± 0.1 kg/m3
308.15 K, x1 = 0.4948
  mass density: 855.9 ± 0.1 kg/m3
308.15 K, x1 = 0.5013
  mass density: 855.87 ± 0.1 kg/m3
308.15 K, x1 = 0.5389
  mass density: 855.55 ± 0.1 kg/m3
308.15 K, x1 = 0.5396
  mass density: 855.55 ± 0.1 kg/m3
308.15 K, x1 = 0.5419
  mass density: 855.53 ± 0.1 kg/m3
308.15 K, x1 = 0.5927
  mass density: 855.17 ± 0.1 kg/m3
308.15 K, x1 = 0.6428
  mass density: 854.84 ± 0.1 kg/m3
308.15 K, x1 = 0.6927
  mass density: 854.58 ± 0.11 kg/m3
308.15 K, x1 = 0.7465
  mass density: 854.32 ± 0.11 kg/m3
308.15 K, x1 = 0.7962
  mass density: 854.16 ± 0.11 kg/m3
308.15 K, x1 = 0.8474
  mass density: 853.99 ± 0.11 kg/m3
308.15 K, x1 = 0.897
  mass density: 853.9 ± 0.12 kg/m3
308.15 K, x1 = 0.9485
  mass density: 853.83 ± 0.12 kg/m3
308.15 K, x1 = 1
  mass density: 853.76 ± 0.12 kg/m3
313.15 K, x1 = 0.0621
  speed of sound: 1235.4 ± 1.3 m/s
  mass density: 856.39 ± 0.09 kg/m3
313.15 K, x1 = 0.0938
  speed of sound: 1238.6 ± 1.4 m/s
  mass density: 855.84 ± 0.09 kg/m3
313.15 K, x1 = 0.1434
  speed of sound: 1243.5 ± 1.4 m/s
  mass density: 855.11 ± 0.09 kg/m3
313.15 K, x1 = 0.1546
  speed of sound: 1244.6 ± 1.4 m/s
  mass density: 854.94 ± 0.09 kg/m3
313.15 K, x1 = 0.2031
  speed of sound: 1249.7 ± 1.4 m/s
  mass density: 854.22 ± 0.09 kg/m3
313.15 K, x1 = 0.2475
  speed of sound: 1254.5 ± 1.4 m/s
  mass density: 853.65 ± 0.09 kg/m3
313.15 K, x1 = 0.2972
  speed of sound: 1260 ± 1.4 m/s
  mass density: 853.04 ± 0.09 kg/m3
313.15 K, x1 = 0.3472
  speed of sound: 1265.6 ± 1.4 m/s
  mass density: 852.51 ± 0.09 kg/m3
313.15 K, x1 = 0.3945
  speed of sound: 1270.9 ± 1.4 m/s
  mass density: 852.03 ± 0.1 kg/m3
313.15 K, x1 = 0.4786
  speed of sound: 1280.4 ± 1.4 m/s
  mass density: 851.24 ± 0.1 kg/m3
313.15 K, x1 = 0.4948
  speed of sound: 1282.3 ± 1.4 m/s
  mass density: 851.15 ± 0.1 kg/m3
313.15 K, x1 = 0.5013
  speed of sound: 1283 ± 1.4 m/s
  mass density: 851.07 ± 0.1 kg/m3
313.15 K, x1 = 0.5389
  speed of sound: 1287.3 ± 1.4 m/s
  mass density: 850.78 ± 0.1 kg/m3
313.15 K, x1 = 0.5396
  speed of sound: 1287.4 ± 1.4 m/s
  mass density: 850.78 ± 0.1 kg/m3
313.15 K, x1 = 0.5419
  speed of sound: 1287.7 ± 1.4 m/s
  mass density: 850.75 ± 0.1 kg/m3
313.15 K, x1 = 0.5927
  speed of sound: 1293.5 ± 1.4 m/s
  mass density: 850.43 ± 0.1 kg/m3
313.15 K, x1 = 0.6428
  speed of sound: 1299.4 ± 1.4 m/s
  mass density: 850.14 ± 0.11 kg/m3
313.15 K, x1 = 0.6927
  speed of sound: 1305.2 ± 1.4 m/s
  mass density: 849.92 ± 0.11 kg/m3
313.15 K, x1 = 0.7465
  speed of sound: 1311.7 ± 1.5 m/s
  mass density: 849.68 ± 0.11 kg/m3
313.15 K, x1 = 0.7962
  speed of sound: 1317.8 ± 1.5 m/s
  mass density: 849.53 ± 0.11 kg/m3
313.15 K, x1 = 0.8474
  speed of sound: 1324.1 ± 1.5 m/s
  mass density: 849.39 ± 0.12 kg/m3
313.15 K, x1 = 0.897
  speed of sound: 1330.5 ± 1.5 m/s
  mass density: 849.32 ± 0.12 kg/m3
313.15 K, x1 = 0.9485
  speed of sound: 1337.5 ± 1.5 m/s
  mass density: 849.27 ± 0.12 kg/m3
313.15 K, x1 = 1
  speed of sound: 1344.5 ± 1.5 m/s
  mass density: 849.23 ± 0.13 kg/m3
318.15 K, x1 = 0.0621
  speed of sound: 1212.6 ± 1.3 m/s
  mass density: 851.07 ± 0.09 kg/m3
318.15 K, x1 = 0.0938
  speed of sound: 1215.7 ± 1.3 m/s
  mass density: 850.53 ± 0.09 kg/m3
318.15 K, x1 = 0.1434
  speed of sound: 1220.9 ± 1.3 m/s
  mass density: 849.85 ± 0.09 kg/m3
318.15 K, x1 = 0.1546
  speed of sound: 1221.9 ± 1.3 m/s
  mass density: 849.69 ± 0.09 kg/m3
318.15 K, x1 = 0.2031
  speed of sound: 1227.1 ± 1.3 m/s
  mass density: 849.06 ± 0.09 kg/m3
318.15 K, x1 = 0.2475
  speed of sound: 1232 ± 1.4 m/s
  mass density: 848.53 ± 0.09 kg/m3
318.15 K, x1 = 0.2972
  speed of sound: 1237.5 ± 1.4 m/s
  mass density: 847.99 ± 0.1 kg/m3
318.15 K, x1 = 0.3472
  speed of sound: 1243.2 ± 1.4 m/s
  mass density: 847.44 ± 0.1 kg/m3
318.15 K, x1 = 0.3945
  speed of sound: 1248.6 ± 1.4 m/s
  mass density: 847.06 ± 0.1 kg/m3
318.15 K, x1 = 0.4786
  speed of sound: 1258.2 ± 1.4 m/s
  mass density: 846.39 ± 0.1 kg/m3
318.15 K, x1 = 0.4948
  speed of sound: 1260 ± 1.4 m/s
  mass density: 846.28 ± 0.1 kg/m3
318.15 K, x1 = 0.5013
  speed of sound: 1260.8 ± 1.4 m/s
  mass density: 846.24 ± 0.1 kg/m3
318.15 K, x1 = 0.5389
  speed of sound: 1265.3 ± 1.4 m/s
  mass density: 845.99 ± 0.1 kg/m3
318.15 K, x1 = 0.5396
  speed of sound: 1265.4 ± 1.4 m/s
  mass density: 845.99 ± 0.1 kg/m3
318.15 K, x1 = 0.5419
  speed of sound: 1265.7 ± 1.4 m/s
  mass density: 845.99 ± 0.1 kg/m3
318.15 K, x1 = 0.5927
  speed of sound: 1271.5 ± 1.4 m/s
  mass density: 845.7 ± 0.11 kg/m3
318.15 K, x1 = 0.6428
  speed of sound: 1277.4 ± 1.4 m/s
  mass density: 845.45 ± 0.11 kg/m3
318.15 K, x1 = 0.6927
  speed of sound: 1283.3 ± 1.4 m/s
  mass density: 845.29 ± 0.11 kg/m3
318.15 K, x1 = 0.7465
  speed of sound: 1289.9 ± 1.4 m/s
  mass density: 845.06 ± 0.11 kg/m3
318.15 K, x1 = 0.7962
  speed of sound: 1295.8 ± 1.5 m/s
  mass density: 844.93 ± 0.12 kg/m3
318.15 K, x1 = 0.8474
  speed of sound: 1302.4 ± 1.5 m/s
  mass density: 844.84 ± 0.12 kg/m3
318.15 K, x1 = 0.897
  speed of sound: 1308.8 ± 1.5 m/s
  mass density: 844.74 ± 0.12 kg/m3
318.15 K, x1 = 0.9485
  speed of sound: 1315.9 ± 1.5 m/s
  mass density: 844.71 ± 0.12 kg/m3
318.15 K, x1 = 1
  speed of sound: 1323.1 ± 1.5 m/s
  mass density: 844.68 ± 0.13 kg/m3
323.15 K, x1 = 0.0621
  speed of sound: 1190.1 ± 1.3 m/s
  mass density: 845.7 ± 0.09 kg/m3
323.15 K, x1 = 0.0938
  speed of sound: 1193.2 ± 1.3 m/s
  mass density: 845.26 ± 0.09 kg/m3
323.15 K, x1 = 0.1434
  speed of sound: 1198.3 ± 1.3 m/s
  mass density: 844.64 ± 0.09 kg/m3
323.15 K, x1 = 0.1546
  speed of sound: 1199.4 ± 1.3 m/s
  mass density: 844.5 ± 0.09 kg/m3
323.15 K, x1 = 0.2031
  speed of sound: 1204.6 ± 1.3 m/s
  mass density: 843.92 ± 0.1 kg/m3
323.15 K, x1 = 0.2475
  speed of sound: 1209.5 ± 1.3 m/s
  mass density: 843.45 ± 0.1 kg/m3
323.15 K, x1 = 0.2972
  speed of sound: 1215.1 ± 1.3 m/s
  mass density: 842.96 ± 0.1 kg/m3
323.15 K, x1 = 0.3472
  speed of sound: 1220.9 ± 1.4 m/s
  mass density: 842.52 ± 0.1 kg/m3
323.15 K, x1 = 0.3945
  speed of sound: 1226.2 ± 1.4 m/s
  mass density: 842.14 ± 0.1 kg/m3
323.15 K, x1 = 0.4786
  speed of sound: 1236.1 ± 1.4 m/s
  mass density: 841.55 ± 0.1 kg/m3
323.15 K, x1 = 0.4948
  speed of sound: 1237.9 ± 1.4 m/s
  mass density: 841.45 ± 0.1 kg/m3
323.15 K, x1 = 0.5013
  speed of sound: 1238.7 ± 1.4 m/s
  mass density: 841.42 ± 0.1 kg/m3
323.15 K, x1 = 0.5389
  speed of sound: 1243.1 ± 1.4 m/s
  mass density: 841.19 ± 0.11 kg/m3
323.15 K, x1 = 0.5396
  speed of sound: 1243.2 ± 1.4 m/s
  mass density: 841.19 ± 0.11 kg/m3
323.15 K, x1 = 0.5419
  speed of sound: 1243.5 ± 1.4 m/s
  mass density: 841.19 ± 0.11 kg/m3
323.15 K, x1 = 0.5927
  speed of sound: 1249.5 ± 1.4 m/s
  mass density: 840.94 ± 0.11 kg/m3
323.15 K, x1 = 0.6428
  speed of sound: 1255.5 ± 1.4 m/s
  mass density: 840.73 ± 0.11 kg/m3
323.15 K, x1 = 0.6927
  speed of sound: 1261.5 ± 1.4 m/s
  mass density: 840.66 ± 0.11 kg/m3
323.15 K, x1 = 0.7465
  speed of sound: 1268.1 ± 1.4 m/s
  mass density: 840.41 ± 0.11 kg/m3
323.15 K, x1 = 0.7962
  speed of sound: 1274.1 ± 1.4 m/s
  mass density: 840.3 ± 0.12 kg/m3
323.15 K, x1 = 0.8474
  speed of sound: 1280.6 ± 1.4 m/s
  mass density: 840.24 ± 0.12 kg/m3
323.15 K, x1 = 0.897
  speed of sound: 1287.1 ± 1.5 m/s
  mass density: 840.16 ± 0.12 kg/m3
323.15 K, x1 = 0.9485
  speed of sound: 1294.4 ± 1.5 m/s
  mass density: 840.16 ± 0.13 kg/m3
323.15 K, x1 = 1
  speed of sound: 1301.8 ± 1.5 m/s
  mass density: 840.14 ± 0.13 kg/m3
